Test results taken from US12655156B2, “Oxadiazolopyrazines and oxadiazolopyridines useful as mitochondrial uncouplers” (Virginia Tech Intellectual Properties, Inc., priority 2018, dated 2026).

Tested on: whole cells (NMuLi, C2C12, and L6 cells, isolated cardiomyocytes, human primary fibroblasts)
Assay: Oxygen consumption rate (OCR) in whole cells, Seahorse XF-24 Flux Analyzer
Assay type: cell-based
Conditions: increase in OCR; binned EC50 values
Experimental: Biological activities of the compounds synthesized is determined by determining increase in oxygen consumption rate (OCR).
Oxygen consumption rate (OCR) in whole cells is measured in general accordance with the method of Kenwood B M et al. (Mol. Met. (2014) 3:114-123).
OCR is measured using a Seahorse XF-24 Flux Analyzer (Seahorse Biosciences, North Billerica, MA). NMuLi, C2C12, and L6 cells are seeded in a Seahorse 24-well tissue culture plate at a density of 3.5×10^4 cells/well, isolated cardiomyocytes at a density of 4×10^4 cells/well, and human primary fibroblasts at a density of 1.1×10^4 cells/well. The cells are then allowed to adhere for 24 h. Prior to the assay, the media is changed to unbuffered DMEM containing pyruvate and glutamine (Gibco #12800-017, pH=7.4 at 37° C.) and the cells are equilibrated for 30 mins at 37°° C. Compounds are injected during the assay and OCR is measured using 2 min measurement periods.
2-3 wells are used per condition and averaged over three plates (n=6-9). Statistical significance is determined by two-way ANOVA with Bonferroni's posttest.
Activities are reported as binned EC50 values: A=5 μM or less; B=>5 to 20 μM; C=over 20 μM; NA=not active.

Compound	EC50
Oc1nc2nonc2cc1Nc1ccc(OC(F)(F)F)cc1F [1-251, 6-((2-fluoro-4-(trifluoromethoxy)phenyl)amino)-[1,2,5]oxadiazolo[3,4-b]pyridin-5-ol]	≤ 5 µM
CCCCOc1ccc(Nc2nc3nonc3nc2O)cc1 [1-95, 6-((4-butoxyphenyl)amino)-[1,2,5]oxadiazolo[3,4-b]pyrazin-5-ol]	≤ 5 µM
Oc1nc2nonc2nc1Nc1cccc(-c2ccc3c(c2)OC(F)(F)O3)c1 [1-126, 6-((3-(2,2-difluorobenzo[d][1,3]dioxol-5-yl)phenyl)amino)-[1,2,5]oxadiazolo[3,4-b]pyrazin-5-ol]	≤ 5 µM
N#Cc1cc(-c2ccc(Nc3nc4nonc4nc3O)cc2)cs1 [1-123, 4-(4-((6-hydroxy-[1,2,5]oxadiazolo[3,4-b]pyrazin-5-yl)amino)phenyl)thiophene-2-carbonitrile]	≤ 5 µM
COc1cccc(-c2ccc(Nc3nc4nonc4nc3O)cc2)c1 [1-137, 6-((3′-methoxy-[1,1′-biphenyl]-4-yl)amino)-[1,2,5]oxadiazolo[3,4-b]pyrazin-5-ol]	≤ 5 µM
CCCCCCc1ccc(Nc2nc3nonc3nc2O)cc1 [1-72, 6-((4-hexylphenyl)amino)-[1,2,5]oxadiazolo[3,4-b]pyrazin-5-ol]	5 to 20 µM
Oc1nc2nonc2nc1Nc1ccc(OC(F)(F)F)c(Cl)c1 [1-24, 6-((3-Chloro-4-(trifluoromethoxy)phenyl)amino)-[1,2,5]oxadiazolo[3,4-b]pyrazin-5-ol]	≤ 5 µM
CCCCC#Cc1ccc(Nc2nc3nonc3nc2O)c(F)c1 [1-63, 6-((2-Fluoro-4-(hex-1-yn-1-yl)phenyl)amino)-[1,2,5]oxadiazolo[3,4-b]pyrazin-5-ol]	≤ 5 µM
Oc1nc2nonc2nc1Nc1cc(F)cc(F)c1 [1-15, 6-((3,5-Difluorophenyl)amino)-[1,2,5]oxadiazolo[3,4-b]pyrazin-5-ol]	5 to 20 µM
Oc1nc2nonc2nc1Nc1ccc(F)c(Br)c1 [1-33, 6-((3-Bromo-4-fluorophenyl)amino)-[1,2,5]oxadiazolo[3,4-b]pyrazin-5-ol]	5 to 20 µM
CC(=O)COc1nc2nonc2nc1Nc1ccc(-c2ccc(F)cc2)cc1 [1-190, 1-((6-((4′-fluoro-[1,1′-biphenyl]-4-yl)amino)-[1,2,5]oxadiazolo[3,4-b]pyrazin-5-yl)oxy)propan-2-one]	≤ 5 µM
Oc1nc2nonc2nc1Nc1ccccc1Cl [1-20, 6-((2-Chlorophenyl)amino)-[1,2,5]oxadiazolo[3,4-b]pyrazin-5-ol]	5 to 20 µM
Oc1nc2nonc2nc1Nc1ccc(-c2ccc(C(F)(F)F)cc2)cc1 [1-130, 6-((4′-(trifluoromethyl)-[1,1′-biphenyl]-4-yl)amino)-[1,2,5]oxadiazolo[3,4-b]pyrazin-5-ol]	5 to 20 µM
Oc1nc2nonc2nc1Nc1ccc(C(F)(F)F)cc1 [1-7, 6-((4-(Trifluoromethyl)phenyl)amino)-[1,2,5]oxadiazolo[3,4-b]pyrazin-5-ol]	5 to 20 µM
COc1ccccc1Nc1nc2nonc2nc1O [1-94, 6-((2-methoxyphenyl)amino)-[1,2,5]oxadiazolo[3,4-b]pyrazin-5-ol]	> 20 µM
Cc1ccc(CNc2nc3nonc3nc2O)cc1 [1-78, 6-((4-methylbenzyl)amino)-[1,2,5]oxadiazolo[3,4-b]pyrazin-5-ol]	> 20 µM
CCCCc1ccc(Nc2nc3nonc3nc2O)c(F)c1 [1-55, 6-((4-Butyl-2-fluorophenyl)amino)-[1,2,5]oxadiazolo[3,4-b]pyrazin-5-ol]	≤ 5 µM
Oc1nc2nonc2nc1Nc1ccc(OC(F)(F)C(F)F)cc1 [1-28, 6-((4-(1,1,2,2-Tetrafluoroethoxy)phenyl)amino)-[1,2,5]oxadiazolo[3,4-b]pyrazin-5-ol]	5 to 20 µM
Oc1nc2nonc2nc1Nc1cccc(-c2ccc(F)cc2)c1 [1-134, 6-((4′-fluoro-[1,1′-biphenyl]-3-yl)amino)-[1,2,5]oxadiazolo[3,4-b]pyrazin-5-ol]	≤ 5 µM
Oc1nc2nonc2nc1Nc1cccc(F)c1 [1-4, 6-((3-Fluorophenyl)amino)-[1,2,5]oxadiazolo[3,4-b]pyrazin-5-ol]	> 20 µM
Oc1nc2nonc2nc1Nc1ccc(Br)cc1F [1-43, 6-((4-Bromo-2-fluorophenyl)amino)-[1,2,5]oxadiazolo[3,4-b]pyrazin-5-ol]	≤ 5 µM
Oc1nc2nonc2nc1Nc1ccc(-c2ccc(OC(F)(F)F)cc2)cc1 [1-105, 6-((4′-(trifluoromethoxy)-[1,1′-biphenyl]-4-yl)amino)-[1,2,5]oxadiazolo[3,4-b]pyrazin-5-ol]	5 to 20 µM
Cc1ccc(C(F)(F)F)cc1Nc1nc2nonc2nc1O [1-12, 6-((2-Methyl-5-(trifluoromethyl)phenyl)amino)-[1,2,5]oxadiazolo[3,4-b]pyrazin-5-ol]	5 to 20 µM

Compound	EC50
Oc1nc2nonc2nc1Nc1ccc2ccccc2c1 [1-44, 6-(Naphthalen-2-ylamino)-[1,2,5]oxadiazolo[3,4-b]pyrazin-5-ol]	≤ 5 µM
Oc1nc2nonc2nc1Nc1ccc(S(F)(F)(F)(F)F)cc1 [1-30, 6-((4-(Pentafluoro-16-sulfaneyl)phenyl)amino)-[1,2,5]oxadiazolo[3,4-b]pyrazin-5-ol]	≤ 5 µM
Oc1nc2nonc2nc1Nc1ccc(OCCCC(F)(F)F)c(C(F)(F)F)c1 [1-100, 6-((4-(4,4,4-trifluorobutoxy)-3-(trifluoromethyl)phenyl)amino)-[1,2,5]oxadiazolo[3,4-b]pyrazin-5-ol]	≤ 5 µM
Oc1nc2nonc2nc1Nc1ccc(OC(F)(F)F)c(-c2ccc(C(F)(F)F)nc2)c1 [1-117, 6-((4-(trifluoromethoxy)-3-(6-(trifluoromethyl)pyridin-3-yl)phenyl)amino)-[1,2,5]oxadiazolo[3,4-b]pyrazin-5-ol]	5 to 20 µM
COc1nc2nonc2cc1Nc1ccc(-c2ccc(C(F)(F)F)nc2)cc1 [1-225, 5-methoxy-N-(4-(6-(trifluoromethyl)pyridin-3-yl)phenyl)-[1,2,5]oxadiazolo[3,4-b]pyridin-6-amine]	> 20 µM
CC(C)(C)c1ccc(Nc2nc3nonc3nc2O)cc1 [1-51, 6-((4-(tert-Butyl)phenyl)amino)-[1,2,5]oxadiazolo[3,4-b]pyrazin-5-ol]	≤ 5 µM
Oc1nc2nonc2nc1NC12CC3CC(CC(C3)C1)C2 [1-81, 6-(((3S,5S,7S)-adamantan-1-yl)amino)-[1,2,5]oxadiazolo[3,4-b]pyrazin-5-ol]	5 to 20 µM
Oc1nc2nonc2nc1Nc1ccc(OC(F)(F)Cl)cc1 [1-29, 6-((4-(Chlorodifluoromethoxy)phenyl)amino)-[1,2,5]oxadiazolo[3,4-b]pyrazin-5-ol]	≤ 5 µM
Oc1nc2nonc2nc1Nc1ccc(OC(F)(F)F)c(F)c1 [1-11, 6-((3-Fluoro-4-(trifluoromethoxy)phenyl)amino)-[1,2,5]oxadiazolo[3,4-b]pyrazin-5-ol]	≤ 5 µM
Oc1nc2nonc2nc1Nc1cccc(-c2ccc(Cl)cc2)c1 [1-133, 6-((4′-chloro-[1,1′-biphenyl]-3-yl)amino)-[1,2,5]oxadiazolo[3,4-b]pyrazin-5-ol]	≤ 5 µM
N#Cc1cc(-c2ccc(Nc3nc4nonc4nc3O)cc2)ccc1F [1-129, 4-fluoro-4′-((6-hydroxy-[1,2,5]oxadiazolo[3,4-b]pyrazin-5-yl)amino)-[1,1′-biphenyl]-3-carbonitrile]	5 to 20 µM
CC12CC3CC(C)(C1)CC(Nc1nc4nonc4nc1O)(C3)C2 [1-82, 6-(((1R,3R,5S,7R)-3,5-dimethyladamantan-1-yl)amino)-[1,2,5]oxadiazolo[3,4-b]pyrazin-5-ol]	≤ 5 µM
Oc1nc2nonc2nc1Nc1ccc(-c2ccccc2)cc1 [1-103, 6-([1,1′-biphenyl]-4-ylamino)-[1,2,5]oxadiazolo[3,4-b]pyrazin-5-ol]	≤ 5 µM
CCCCCc1ccc(Nc2nc3nonc3nc2O)cc1 [1-71, 6-((4-pentylphenyl)amino)-[1,2,5]oxadiazolo[3,4-b]pyrazin-5-ol]	> 20 µM
Oc1nc2nonc2cc1Nc1ccc(C(F)(F)F)cc1 [1-242, 6-((4-(trifluoromethyl)phenyl)amino)-[1,2,5]oxadiazolo[3,4-b]pyridin-5-ol]	> 20 µM
CC1(C)c2ccccc2-c2ccc(Nc3nc4nonc4nc3O)cc21 [1-118, 6-((9,9-dimethyl-9H-fluoren-2-yl)amino)-[1,2,5]oxadiazolo[3,4-b]pyrazin-5-ol]	≤ 5 µM
Oc1nc2nonc2nc1Nc1ccc(OCC(F)(F)F)cc1 [1-88, 6-((4-(2,2,2-Trifluoroethoxy)phenyl)amino)-[1,2,5]oxadiazolo[3,4-b]pyrazin-5-ol]	> 20 µM
Oc1nc2nonc2nc1Nc1ccc(C(F)(F)F)cc1F [1-16, 6-((2-Fluoro-4-(trifluoromethyl)phenyl)amino)-[1,2,5]oxadiazolo[3,4-b]pyrazin-5-ol]	≤ 5 µM
Oc1nc2nonc2nc1Nc1ccc(Cl)cc1 [1-21, 6-((4-Chlorophenyl)amino)-[1,2,5]oxadiazolo[3,4-b]pyrazin-5-ol]	5 to 20 µM
Oc1nc2nonc2nc1Nc1ccc(OC(F)F)cc1 [1-27, 6-((4-(Difluoromethoxy)phenyl)amino)-[1,2,5]oxadiazolo[3,4-b]pyrazin-5-ol]	> 20 µM
Oc1nc2nonc2nc1Nc1ccc(OCC2CC2)c(C(F)(F)F)c1 [1-92, 6-((4-(cyclopropylmethoxy)-3-(trifluoromethyl)phenyl)amino)-[1,2,5]oxadiazolo[3,4-b]pyrazin-5-ol]	≤ 5 µM
Oc1nc2nonc2nc1Nc1cccc(-c2ccccc2)c1 [1-104, 6-([1,1′-biphenyl]-3-ylamino)-[1,2,5]oxadiazolo[3,4-b]pyrazin-5-ol]	≤ 5 µM
